# According to publication PMC8325119, “A Novel Class of Functionalized Synthetic Fluoroquinolones with Dual Antiproliferative - Antimicrobial Capacities” (Asian Pacific Journal of Cancer Prevention : APJCP, 2021):
# “And” between values parts separate entries of the source, which are not always exact repeats. Equal values may be shown once. Read-outs that look alike come from different tables or passages of the source.
# Legend:
# [1] = test system: Staphylococcus aureus (S. aureus) ATCC 6538; assay: Quantitative antimicrobial assessment (MIC) against S. aureus; format: cell-based
# [2] = test system: A549 cell line; assay: SRB cytotoxicity assay, A549 lung cancer cell line; conditions: Homo sapiens, A549, 72 h, read-out: Cytotoxicity IC50 value, A549 cell line
# Description: (§1) All reagents and chemicals of analytical grade were obtained from Sigma (Dorset, UK); unless stated otherwise. All chemicals, reagents and solvents (of analytical grade) were used directly without further purification. MCF7 cell line ATCC® HTB-22™, T47D cell line ATCC® HTB-133™, K562 cell line ATCC® CCL-243™, Panc1 cell line ATCC® CRL-1469™. A375.S2 cell line ATCC® CRL-1872™, A549 cell line ATCC® CCL-185™, HELA cell line ATCC® CCL-2™ were cultured in Dulbecco’s modified eagle’s medium (DMEM). (DMEM) containing foetal bovine serum (FBS) (Bio Whittaker, Verviers, Belgium), 4-(2-hydroxyethyl)-1-piperazine ethane sulfonic acid (HEPES) Buffer, L-glutamine, gentamicin, penicillin, and streptomycin sulphate (Sigma, St. Luis, MO, USA), trypsin, trypan blue, Ciprofloxacin HCl from Aarti drugs Ltd/India, was a kind gift from Pharma International Company- Amman; Fluconazole from Neopharma, United Arab Emirates, a kind gift from Pharmaceutical Research Unit, Amman; Trypon soya agar (TSA), trypon soya broth (TSB), sabouraud dextrose agar (SDA) were obtained from Liofilchem (Italy) or Oxoid LTD (Basingstoke, England), they were reconstituted and sterilized by autoclave at 121 °C for 15 min.
# (§2) The cytotoxicity measurements were determined using Sulforhodamine B (SRB) colorimetric assay for cytotoxicity screening. The mechanism of reduction of cell viability was adopted as described previously (Arabiyat et al., 2016a,b; 2017; Alabsi et al., 2018; Jumah, 2018; AlShahrabi et al., 2020). Human periodontal ligament fibroblasts (PDL) are a primary normal cell culture for verification of selective cytotoxicity. […] Selectivity ratio as indicative factor of the safety of compounds was calculated by dividing IC50 of tested compound on normal fibroblasts by IC50 of the same compound on specific pathological cell line (Hoffman et al., 2011).
# [3] = test system: A375.S2 cell line; assay: SRB cytotoxicity assay, A375.S2 melanoma cell line; conditions: Homo sapiens, A375-S2, 72 h, read-out: Cytotoxicity IC50 value, A375.S2 cell line
# Description: as §1, §2
# [4] = test system: MCF7 cell line; assay: SRB cytotoxicity assay, MCF7 breast cancer cell line; conditions: Homo sapiens, MCF7, 72 h, read-out: Cytotoxicity IC50 value, MCF7 cell line
# Description: as §1, §2
# [5] = test system: HELA cell line; assay: SRB cytotoxicity assay, HELA cervical cancer cell line; conditions: Homo sapiens, HeLa, 72 h
# Description: as §1, §2
# [6] = test system: K562 cell line; assay: SRB cytotoxicity assay, K562 leukaemia cell line; conditions: Homo sapiens, K562, 72 h
# Description: as §1, §2
# [7] = test system: PANC 1 cell line; assay: SRB cytotoxicity assay, PANC 1 pancreatic cancer cell line; conditions: Homo sapiens, PANC-1, 72 h, read-out: Cytotoxicity IC50 value, PANC 1 cell line
# Description: as §1, §2
# [8] = test system: T47D cell line; assay: cells; conditions: Homo sapiens, T47D, 72 h, read-out: Cytotoxicity IC50 value, T47D cell line
# Description: as §1, §2
# [9] = test system: PDL Fibroblasts; assay: SRB cytotoxicity on normal periodontal ligament fibroblasts, selective cytotoxicity; format: cell-based, Human; conditions: for IC50: Homo sapiens, Fibroblast, normal fibroblasts, SRB, 72 h, mean ± SD; for Selectivity index SI (K562): IC50 on PDL fibroblasts divided by IC50 on K562; for Selectivity index SI (HELA): IC50 on PDL fibroblasts divided by IC50 on HELA
# Description: as §2
# [10] = read-out: Cytotoxicity IC50 value, HELA cell line, SRB, 72 h, 0.1-200 μg/mL range, mean ± SD, value in brackets
# [11] = read-out: Cytotoxicity IC50 value, HELA cell line, SRB, 72 h, 0.1-200 μg/mL range, mean ± SD, NI = lack of cytotoxicity in range
# [12] = read-out: Cytotoxicity IC50 value, K562 cell line, SRB, 72 h, 0.1-200 μg/mL range, mean ± SD, value in brackets
# [13] = read-out: Cytotoxicity IC50 value, K562 cell line, SRB, 72 h, 0.1-200 μg/mL range, mean ± SD, NI = lack of cytotoxicity in range
# [14] = 0.1-200 μg/mL range, NI = lack of cytotoxicity in range
structure (smiles),measurement,setting,value
CCOC(=O)c1cn(C2CC2)c2c([N+](=O)[O-])c(Nc3ccccc3OC)c(F)cc2c1=O [2A],Antibacterial activity (in words),"[1]; esters vs free acid, Gram positive strain context",lacked antibacterial activity
"COc1ccc(-n2nnc3c4c(cc(F)c32)c(=O)c(C(=O)O)cn4C2CC2)c(OC)c1 [5g, 9-cyclopropyl-3-(2,4-dimethoxy-phenyl)-4-fluoro-6-oxo-6,9-dihydro-3H-[1,2,3] triazolo[4,5-h]quinoline-7-carboxylic acid]",IC50,[2],474 µM and 205 µg/mL
same,IC50,[3],272 µM and 118 µg/mL
same,IC50,[4],143 µM and 61.9 µg/mL
same,IC50,[5]; [10],71.8 µg/mL
same,IC50,[5]; [11],166 ± 26 µM
same,IC50,[6]; [12],24.2 µg/mL
same,IC50,[6]; [13],56 ± 8.04 µM
same,IC50,[7],> 200 µg/mL
same,IC50,[8],237 µM and 102 µg/mL
same,IC50,[9]; [14],237 ± 13.5 µM
same,IC50,[9]; value in brackets,102 µg/mL
same,Selectivity index SI (K562),[9],4.23
"O=C(O)c1cn(C2CC2)c2c([N+](=O)[O-])c(NC3CCCCC3)c(F)cc2c1=O [7a, 7-cyclohexylamino-1-cyclopropyl-6-fluoro-8-nitro-4-oxo-1,4-dihydro-quinoline-3-carboxylic acid]",IC50,[2],240 µM and 93.6 µg/mL
same,IC50,[3],246 µM and 102 µg/mL
same,IC50,[4],> 200 µg/mL
same,IC50,[5]; [10],0.16 µg/mL
same,IC50,[5]; [11],0.4 ± 0.05 µM
same,IC50,[6]; [12],11 µg/mL
same,IC50,[6]; [13],28.2 ± 2.04 µM
same,IC50,[7],13.2 µM and 5.15 µg/mL
same,IC50,[8],51.2 µM and 19.9 µg/mL
same,IC50,[9]; [14],29.9 ± 3.56 µM
same,IC50,[9]; value in brackets,11.6 µg/mL
same,Selectivity index SI (HELA),[9],74.66
"Nc1c(NC2CCCCC2)c(F)cc2c(=O)c(C(=O)O)cn(C3CC3)c12 [8a, 8-amino-7-cyclohexylamino-1-cyclopropyl-6-fluoro-4-oxo-1,4-dihydro-quinoline-3-carboxylic acid]",IC50,[2],44 µM and 15.8 µg/mL
same,IC50,[3],3.69 µM and 1.33 µg/mL
same,IC50,[4],> 200 µg/mL
same,IC50,[5]; [10],45 µg/mL
same,IC50,[5]; [11],125 ± 21.9 µM
same,IC50,[6]; [12],24.4 µg/mL
same,IC50,[6]; [13],67.9 ± 6.76 µM
same,IC50,[7],137 µM and 49.1 µg/mL
same,IC50,[8],148 µM and 53.2 µg/mL
same,IC50,[9]; [14],49.4 ± 2.71 µM
same,IC50,[9]; value in brackets,17.8 µg/mL
same,Selectivity index SI (A375.S2),[9]; IC50 on PDL fibroblasts divided by IC50 on A375.S2,12.48
"O=C(O)c1cn(C2CC2)c2c(cc(F)c3c2nnn3C2CCCCC2)c1=O [9a, 3-cyclohexyl-9-cyclopropyl-4-fluoro-6-oxo-6,9-dihydro-3H-[1,2, and 3] triazolo [4,5-h] quinoline-7-carboxylic acid]",IC50,[2],223 µM and 82.3 µg/mL
same,IC50,[3],215 µM and 79.6 µg/mL
same,IC50,[4],133 µM and 49.2 µg/mL
same,IC50,[5]; [10],27.6 µg/mL
same,IC50,[5]; [11],74.8 ± 1.67 µM
same,IC50,[6]; [13],> 200 µg/mL
same,IC50,[7],162 µM and 60 µg/mL
same,IC50,[8],299 µM and 110 µg/mL
same,IC50,[9]; [14],252 ± 11.6 µM
same,IC50,[9]; value in brackets,93.1 µg/mL
same,Selectivity index SI (HELA),[9],3.36
"CCn1cc(C(=O)O)c(=O)c2cc(F)c(Nc3ccccc3OC)c([N+](=O)[O-])c21 [11a, 1-ethyl-6-fluoro-7-(2-methoxy-phenylamino)-8-nitro-4-oxo-1,4-dihydro-quinoline-3 carboxylic acid]",IC50,[2],96.8 µM and 8.84 µg/mL
same,IC50,[3],1.02 mM and 411 µg/mL
same,IC50,[4],67.8 µM and 27.2 µg/mL
same,IC50,[5]; [10],41.4 µg/mL
same,IC50,[5]; [11],103 ± 7.66 µM
same,IC50,[6]; [12],6.38 µg/mL
same,IC50,[6]; [13],15.9 ± 1.75 µM
same,IC50,[7],187 µM and 75.2 µg/mL
same,IC50,[8],22.8 µM and 9.16 µg/mL
same,IC50,[9]; [14],156 ± 11.7 µM
same,IC50,[9]; value in brackets,62.7 µg/mL
same,Selectivity index SI (K562),[9],9.83
"CCn1cc(C(=O)O)c(=O)c2cc(F)c(Nc3cccc(OC)c3)c([N+](=O)[O-])c21 [11b, 1-ethyl-6-fluoro-7-(3-methoxy-phenylamino)-8-nitro-4-oxo-1,4-dihydro-quinoline-3-carboxylic acid]",IC50,[2],> 200 µg/mL
same,IC50,[3],> 200 µg/mL
same,IC50,[4],> 200 µg/mL
same,IC50,[5]; [10],79 µg/mL
same,IC50,[5]; [11],197 ± 38.3 µM
same,IC50,[6]; [12],23.3 µg/mL
same,IC50,[6]; [13],58 ± 9.12 µM
same,IC50,[7],> 200 µg/mL
same,IC50,[8],> 200 µg/mL
same,IC50,[9]; [14],> 200 µg/mL
"CCn1cc(C(=O)O)c(=O)c2cc(F)c(Nc3ccc(OC)cc3OC)c([N+](=O)[O-])c21 [11c, 7-(2,4-dimethoxy-phenylamino)-1-ethyl-6-fluoro-8-nitro-4-oxo-1,4-dihydro-quinoline-3-carboxylic acid]",IC50,[2],> 200 µg/mL
same,IC50,[3],> 200 µg/mL
same,IC50,[4],> 200 µg/mL
same,IC50,[5]; [11],> 200 µg/mL
same,IC50,[6]; [13],> 200 µg/mL
same,IC50,[7],124 µM and 53.3 µg/mL
same,IC50,[8],431 µM and 186 µg/mL
same,IC50,[9]; [14],285 ± 28.7 µM
same,IC50,[9]; value in brackets,123 µg/mL
same,Selectivity index SI (PANC 1),[9]; IC50 on PDL fibroblasts divided by IC50 on PANC 1,2.31
"CCn1cc(C(=O)O)c(=O)c2cc(F)c(Nc3ccccc3OC)c(N)c21 [12a, 8-amino-1-ethyl-6-fluoro-7-(2-methoxy-phenylamino)-4-oxo-1,4-dihydro-quinoline-3-carboxylic acid]",IC50,[2],> 200 µg/mL
same,IC50,[3],373 µM and 138 µg/mL
same,IC50,[4],125 µM and 46.5 µg/mL
same,IC50,[5]; [10],9.45 µg/mL
same,IC50,[5]; [11],25.4 ± 3.92 µM
same,IC50,[6]; [12],7.79 µg/mL
same,IC50,[6]; [13],21 ± 0.62 µM
same,IC50,[7],142 µM and 52.6 µg/mL
same,IC50,[8],83.5 µM and 31 µg/mL
same,IC50,[9]; [14],170 ± 15.1 µM
same,IC50,[9]; value in brackets,63.2 µg/mL
same,Selectivity index SI (K562),[9],8.10
"CCn1cc(C(=O)O)c(=O)c2cc(F)c(Nc3cccc(OC)c3)c(N)c21 [12b, 8-amino-1-ethyl-6-fluoro-7-(3-methoxy-phenylamino)-4-oxo-1,4-dihydro-quinoline-3-carboxylic acid]",IC50,[2],163 µM and 60.4 µg/mL
same,IC50,[3],112 µM and 41.7 µg/mL
same,IC50,[4],492 µM and 183 µg/mL
same,IC50,[5]; [10],83.6 µg/mL
same,IC50,[5]; [11],225 ± 34 µM
same,IC50,[6]; [12],13.2 µg/mL
same,IC50,[6]; [13],35.4 ± 3.8 µM
same,IC50,[7],35.4 µM and 13.2 µg/mL
same,IC50,[8],169 µM and 62.7 µg/mL
same,IC50,[9]; [14],150 ± 6.73 µM
same,IC50,[9]; value in brackets,55.5 µg/mL
same,Selectivity index SI (K562),[9],4.22
"O=C(O)c1cn(C2CC2)c2cc(N3CCNCC3)c(F)cc2c1=O [ciprofloxacin, reference compound]",MIC,"[1]; Staphylococcus aureus, ATCC6538, Gram positive, ATCC 6538",1.12 µM
